# Columns and labels:
# Type in all cases: in vivo
# [1] = tested on: barnyardgrass; assay: Test Example 1: herbicidal effects in preemergence treatment under submerged conditions; details: dose 2.52 g/a
# In short: (§1)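 Weed seeds and 2.5-leaf rice seedlings shared each flooded cup of alluvial soil. Dosing, expressed as g per are, was by pouring water-diluted emulsifiable concentrate onto the surface on sowing day. Mortality was graded 0 to 5 after three weeks' growth.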
# [2] = tested on: bulrush; assay: as above; details: dose 2.52 g/a
# In short: as §1
# [3] = tested on: ducksalad; assay: as above; details: dose 2.52 g/a
# In short: as §1
# [4] = tested on: Italian ryegrass; assay: Test Example 4: herbicidal effect in foliage treatment; details: dose 3.2 g/a
# In short: (§2)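 Sowing in sterilized diluvial soil, ~1.5 cm cover; growth 14 d, 25–30° C greenhouse; foliar spray of water-diluted EC at predetermined g/a; scoring 3 wk later on graded scale.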
# [5] = tested on: barnyardgrass; assay: as above; details: dose 3.2 g/a
# In short: as §2
# [6] = tested on: velvetleaf; assay: as above; details: dose 3.2 g/a
# In short: as §2
# [7] = tested on: common lambsquater; assay: as above; details: dose 3.2 g/a
# In short: as §2
# [8] = tested on: common ragweed; assay: as above; details: dose 3.2 g/a
# In short: as §2
# [9] = tested on: giant foxtail; assay: as above; details: dose 3.2 g/a
# In short: as §2
# [10] = tested on: beadstraw; assay: as above; details: dose 3.2 g/a, three weeks after application
# In short: as §2
# [11] = tested on: redroot pigweed; assay: as above; details: dose 3.2 g/a
# In short: as §2
# [12] = tested on: large crabgrass; assay: as above; details: dose 3.2 g/a
# In short: as §2
# [13] = tested on: water foxtail; assay: as above; details: dose 3.2 g/a
# In short: as §2
# [14] = tested on: posumbu knotweed; assay: as above; details: dose 3.2 g/a
# In short: as §2
# [15] = tested on: common chickweed; assay: as above; details: dose 3.2 g/a
# In short: as §2
# [16] = tested on: transplanted rice; assay: Test Example 1: preemergence treatment under submerged conditions, effect on crop; details: dose 2.52 g/a
# In short: as §1
# [17] = tested on: Italian ryegrass; assay: Test Example 3: herbicidal effects in soil treatment; details: dose 3.2 g/a
# In short: (§3)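 Seeds were sown in sterilized diluvial soil and covered with about 1.5 cm of soil. Compounds, formulated as emulsifiable concentrates and diluted with water, were sprayed evenly over the soil surface at set doses in g/a. Herbicidal effect was scored on a rating scale three weeks later.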
# [18] = tested on: barnyardgrass; assay: as above; details: dose 3.2 g/a
# In short: as §3
# [19] = tested on: velvetleaf; assay: as above; details: dose 3.2 g/a
# In short: as §3
# [20] = tested on: common lambsquater; assay: as above; details: dose 3.2 g/a
# In short: as §3
# [21] = tested on: common ragweed; assay: as above; details: dose 3.2 g/a
# In short: as §3
# [22] = tested on: giant foxtail; assay: as above; details: dose 3.2 g/a
# In short: as §3
# [23] = tested on: beadstraw; assay: as above; details: dose 3.2 g/a
# In short: as §3
# [24] = tested on: redroot pigweed; assay: as above; details: dose 3.2 g/a
# In short: as §3
# [25] = tested on: large crabgrass; assay: as above; details: dose 3.2 g/a
# In short: as §3
# [26] = tested on: water foxtail; assay: as above; details: dose 3.2 g/a
# In short: as §3
# [27] = tested on: common chickweed; assay: as above; details: dose 3.2 g/a
# In short: as §3
# [28] = tested on: barnyardgrass; assay: Test Example 2: herbicidal effects during the vegetation period under submerged conditions; details: treatment during the vegetation period under submerged conditions; dose 2.52 g/a
# In short: (§4)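 Barnyardgrass, bulrush and ducksalad were co-sown in alluvial soil flooded to 4 cm and grown in a greenhouse at 25 to 30° C. At the 1- or 2-leaf stage, water-diluted emulsifiable concentrates went onto the water surface at set doses (g/a). Herbicidal effect was scored three weeks later on a graded scale.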
# [29] = tested on: bulrush; assay: as above; details: treatment during the vegetation period under submerged conditions; dose 2.52 g/a
# In short: as §4
# [30] = tested on: ducksalad; assay: as above; details: treatment during the vegetation period under submerged conditions; dose 2.52 g/a
# In short: as §4
# [31] = three weeks after the application
smiles,measurement,setting,value
O=C1CC2(CCC2)OCN1Cc1ccccc1NS(=O)(=O)C(F)(F)F [II-61],"A: barnyardgrass, herbicidal effect (evaluation scale 0-5)",[1],5 (mortality of 90% or above (nearly complete death))
same,"B: bulrush, herbicidal effect (evaluation scale 0-5)",[2],5 (mortality of 90% or above (nearly complete death))
same,"C: ducksalad, herbicidal effect (evaluation scale 0-5)",[3],5 (mortality of 90% or above (nearly complete death))
same,"H: Italian ryegrass, herbicidal effect",[4]; three weeks after application,4 (mortality of at least 70% and less than 90%)
same,"A: barnyardgrass, herbicidal effect",[5]; three weeks after application,5 (mortality of 90% or above (nearly complete death))
same,"I: velvetleaf, herbicidal effect",[6]; three weeks after application,5 (mortality of 90% or above (nearly complete death))
same,"L: common lambsquater, herbicidal effect",[7]; three weeks after application,3 (mortality of at least 40% and less than 70%)
same,"J: common ragweed, herbicidal effect",[8]; three weeks after application,3 (mortality of at least 40% and less than 70%)
same,"E: giant foxtail, herbicidal effect",[9]; three weeks after application,5 (mortality of 90% or above (nearly complete death))
same,"O: beadstraw, herbicidal effect",[10],3 (mortality of at least 40% and less than 70%)
same,"K: redroot pigweed, herbicidal effect",[11]; three weeks after application,0 (mortality of less than 5% (almost ineffective))
same,"D: large crabgrass, herbicidal effect",[12]; three weeks after application,4 (mortality of at least 70% and less than 90%)
same,"G: water foxtail, herbicidal effect",[13]; three weeks after application,5 (mortality of 90% or above (nearly complete death))
same,"M: posumbu knotweed, herbicidal effect",[14]; three weeks after application,4 (mortality of at least 70% and less than 90%)
same,"N: common chickweed, herbicidal effect",[15]; three weeks after application,4 (mortality of at least 70% and less than 90%)
same,"a: transplanted rice, effect on crop (evaluation scale 0-5)",[16],2 (mortality of at least 20% and less than 40%)
same,"H: Italian ryegrass, herbicidal effect (evaluation scale 0-5)",[17],5 (mortality of 90% or above (nearly complete death))
same,"A: barnyardgrass, herbicidal effect (evaluation scale 0-5)",[18],5 (mortality of 90% or above (nearly complete death))
same,"I: velvetleaf, herbicidal effect (evaluation scale 0-5)",[19],5 (mortality of 90% or above (nearly complete death))
same,"L: common lambsquater, herbicidal effect (evaluation scale 0-5)",[20],5 (mortality of 90% or above (nearly complete death))
same,"J: common ragweed, herbicidal effect (evaluation scale 0-5)",[21],4 (mortality of at least 70% and less than 90%)
same,"E: giant foxtail, herbicidal effect (evaluation scale 0-5)",[22],5 (mortality of 90% or above (nearly complete death))
same,"O: beadstraw, herbicidal effect (evaluation scale 0-5)",[23],5 (mortality of 90% or above (nearly complete death))
same,"K: redroot pigweed, herbicidal effect (evaluation scale 0-5)",[24],5 (mortality of 90% or above (nearly complete death))
same,"D: large crabgrass, herbicidal effect (evaluation scale 0-5)",[25],5 (mortality of 90% or above (nearly complete death))
same,"G: water foxtail, herbicidal effect (evaluation scale 0-5)",[26],5 (mortality of 90% or above (nearly complete death))
same,"N: common chickweed, herbicidal effect (evaluation scale 0-5)",[27],5 (mortality of 90% or above (nearly complete death))
same,"A: barnyardgrass, herbicidal effect (evaluation scale 0-5)",[28],5 (mortality of 90% or above (nearly complete death))
same,"B: bulrush, herbicidal effect (evaluation scale 0-5)",[29],5 (mortality of 90% or above (nearly complete death))
same,"C: ducksalad, herbicidal effect (evaluation scale 0-5)",[30],5 (mortality of 90% or above (nearly complete death))
CC1(c2ccccc2)CC(=O)N(Cc2ccccc2NS(=O)(=O)C(F)(F)F)CO1 (stereo not shown) [II-57],"A: barnyardgrass, herbicidal effect (evaluation scale 0-5)",[1],5 (mortality of 90% or above (nearly complete death))
same,"B: bulrush, herbicidal effect (evaluation scale 0-5)",[2],5 (mortality of 90% or above (nearly complete death))
same,"C: ducksalad, herbicidal effect (evaluation scale 0-5)",[3],5 (mortality of 90% or above (nearly complete death))
same,"H: Italian ryegrass, herbicidal effect",[4]; three weeks after application,5 (mortality of 90% or above (nearly complete death))
same,"A: barnyardgrass, herbicidal effect",[5]; three weeks after application,4 (mortality of at least 70% and less than 90%)
same,"I: velvetleaf, herbicidal effect",[6]; three weeks after application,3 (mortality of at least 40% and less than 70%)
same,"L: common lambsquater, herbicidal effect",[7]; three weeks after application,3 (mortality of at least 40% and less than 70%)
same,"J: common ragweed, herbicidal effect",[8]; three weeks after application,3 (mortality of at least 40% and less than 70%)
same,"E: giant foxtail, herbicidal effect",[9]; three weeks after application,2 (mortality of at least 20% and less than 40%)
same,"K: redroot pigweed, herbicidal effect",[11]; three weeks after application,0 (mortality of less than 5% (almost ineffective))
same,"D: large crabgrass, herbicidal effect",[12]; three weeks after application,2 (mortality of at least 20% and less than 40%)
same,"G: water foxtail, herbicidal effect",[13]; three weeks after application,3 (mortality of at least 40% and less than 70%)
same,"M: posumbu knotweed, herbicidal effect",[14]; three weeks after application,3 (mortality of at least 40% and less than 70%)
same,"N: common chickweed, herbicidal effect",[15]; three weeks after application,4 (mortality of at least 70% and less than 90%)
same,"a: transplanted rice, effect on crop (evaluation scale 0-5)",[16],0 (mortality of less than 5% (almost ineffective))
same,"H: Italian ryegrass, herbicidal effect (evaluation scale 0-5)",[17],5 (mortality of 90% or above (nearly complete death))
same,"A: barnyardgrass, herbicidal effect (evaluation scale 0-5)",[18],2 (mortality of at least 20% and less than 40%)
same,"I: velvetleaf, herbicidal effect (evaluation scale 0-5)",[19],5 (mortality of 90% or above (nearly complete death))
same,"L: common lambsquater, herbicidal effect (evaluation scale 0-5)",[20],0 (mortality of less than 5% (almost ineffective))
same,"J: common ragweed, herbicidal effect (evaluation scale 0-5)",[21],0 (mortality of less than 5% (almost ineffective))
same,"E: giant foxtail, herbicidal effect (evaluation scale 0-5)",[22],5 (mortality of 90% or above (nearly complete death))
same,"O: beadstraw, herbicidal effect (evaluation scale 0-5)",[23],0 (mortality of less than 5% (almost ineffective))
same,"K: redroot pigweed, herbicidal effect (evaluation scale 0-5)",[24],0 (mortality of less than 5% (almost ineffective))
same,"D: large crabgrass, herbicidal effect (evaluation scale 0-5)",[25],3 (mortality of at least 40% and less than 70%)
same,"G: water foxtail, herbicidal effect (evaluation scale 0-5)",[26],5 (mortality of 90% or above (nearly complete death))
same,"N: common chickweed, herbicidal effect (evaluation scale 0-5)",[27],4 (mortality of at least 70% and less than 90%)
same,"A: barnyardgrass, herbicidal effect (evaluation scale 0-5)",[28],2 (mortality of at least 20% and less than 40%)
same,"B: bulrush, herbicidal effect (evaluation scale 0-5)",[29],5 (mortality of 90% or above (nearly complete death))
same,"C: ducksalad, herbicidal effect (evaluation scale 0-5)",[30],5 (mortality of 90% or above (nearly complete death))
CCOC(=O)N(c1ccccc1CN1COC2(CCCC2)C(Br)C1=O)S(=O)(=O)C(F)(F)F (stereo not shown) [II-77],"A: barnyardgrass, herbicidal effect (evaluation scale 0-5)",[1],5 (mortality of 90% or above (nearly complete death))
same,"B: bulrush, herbicidal effect (evaluation scale 0-5)",[2],5 (mortality of 90% or above (nearly complete death))
same,"C: ducksalad, herbicidal effect (evaluation scale 0-5)",[3],5 (mortality of 90% or above (nearly complete death))
same,"H: Italian ryegrass, herbicidal effect",[4]; [31],0 (mortality of less than 5% (almost ineffective))
same,"A: barnyardgrass, herbicidal effect",[5]; [31],4 (mortality of at least 70% and less than 90%)
same,"I: velvetleaf, herbicidal effect",[6]; [31],3 (mortality of at least 40% and less than 70%)
same,"L: common lambsquater, herbicidal effect",[7]; [31],4 (mortality of at least 70% and less than 90%)
same,"J: common ragweed, herbicidal effect",[8]; [31],3 (mortality of at least 40% and less than 70%)
same,"E: giant foxtail, herbicidal effect",[9]; [31],1 (mortality of at least 5% and less than 20%)
same,"K: redroot pigweed, herbicidal effect",[11]; [31],3 (mortality of at least 40% and less than 70%)
same,"D: large crabgrass, herbicidal effect",[12]; [31],1 (mortality of at least 5% and less than 20%)
same,"G: water foxtail, herbicidal effect",[13]; [31],5 (mortality of 90% or above (nearly complete death))
same,"M: posumbu knotweed, herbicidal effect",[14]; [31],3 (mortality of at least 40% and less than 70%)
same,"N: common chickweed, herbicidal effect",[15]; [31],3 (mortality of at least 40% and less than 70%)
same,"a: transplanted rice, effect on crop (evaluation scale 0-5)",[16],0 (mortality of less than 5% (almost ineffective))
same,"herbicidal effect, H: Italian ryegrass",[17],1 (mortality of at least 5% and less than 20%)
same,"herbicidal effect, A: barnyardgrass",[18],4 (mortality of at least 70% and less than 90%)
same,"herbicidal effect, I: velvetleaf",[19],5 (mortality of 90% or above (nearly complete death))
same,"herbicidal effect, L: common lambsquater",[20],5 (mortality of 90% or above (nearly complete death))
same,"herbicidal effect, J: common ragweed",[21],0 (mortality of less than 5% (almost ineffective))
same,"herbicidal effect, E: giant foxtail",[22],1 (mortality of at least 5% and less than 20%)
same,"herbicidal effect, O: beadstraw",[23],0 (mortality of less than 5% (almost ineffective))
same,"herbicidal effect, K: redroot pigweed",[24],4 (mortality of at least 70% and less than 90%)
same,"herbicidal effect, D: large crabgrass",[25],5 (mortality of 90% or above (nearly complete death))
same,"herbicidal effect, G: water foxtail",[26],3 (mortality of at least 40% and less than 70%)
same,"herbicidal effect, N: common chickweed",[27],4 (mortality of at least 70% and less than 90%)
same,"A: barnyardgrass, herbicidal effect (evaluation scale 0-5)",[28],0 (mortality of less than 5% (almost ineffective))
same,"B: bulrush, herbicidal effect (evaluation scale 0-5)",[29],5 (mortality of 90% or above (nearly complete death))
same,"C: ducksalad, herbicidal effect (evaluation scale 0-5)",[30],4 (mortality of at least 70% and less than 90%)
